Results taken from article PMC10180211, “Stability Analysis of the Asiatic Acid-COX-2 Complex Using 100 ns Molecular Dynamic Simulations and Its Selectivity against COX-2 as a Potential Anti-Inflammatory Candidate” (Molecules, 2023).

Biological target: T1, cyclooxygenase-2 (COX-2) (Ovis aries, UniProt P79208)
T1 construct: gene PTGS2
T1 sequence (P79208 17-603): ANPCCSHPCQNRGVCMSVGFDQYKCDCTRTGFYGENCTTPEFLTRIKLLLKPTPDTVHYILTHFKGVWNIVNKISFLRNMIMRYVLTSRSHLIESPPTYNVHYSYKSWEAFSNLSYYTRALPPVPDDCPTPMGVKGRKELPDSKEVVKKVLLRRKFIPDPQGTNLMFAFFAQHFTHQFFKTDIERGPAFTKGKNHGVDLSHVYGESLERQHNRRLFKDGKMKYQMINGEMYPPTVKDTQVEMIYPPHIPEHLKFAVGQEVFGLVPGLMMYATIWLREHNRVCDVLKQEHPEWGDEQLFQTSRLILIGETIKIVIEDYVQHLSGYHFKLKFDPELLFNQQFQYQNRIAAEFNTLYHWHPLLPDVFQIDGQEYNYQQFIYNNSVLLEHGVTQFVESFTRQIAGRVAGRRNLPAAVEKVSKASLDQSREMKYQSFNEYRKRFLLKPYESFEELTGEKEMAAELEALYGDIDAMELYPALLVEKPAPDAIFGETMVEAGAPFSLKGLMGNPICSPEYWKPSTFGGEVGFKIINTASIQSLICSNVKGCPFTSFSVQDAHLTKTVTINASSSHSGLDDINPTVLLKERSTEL
Assay: colorimetric COX inhibitor screening assay (kit […]; TMPD oxidation at […] nm) with ovine COX-2
Format: biochemical

Q: `C[C@H]1[C@H](C)CC[C@]2(C(=O)O)CC[C@]3(C)C(=CC[C@@H]4[C@@]5(C)C[C@@H](O)[C@H](O)[C@@](C)(CO)[C@@H]5CC[C@]43C)[C@H]12` [asiatic acid, 2,3,23-trihydroxy-urs-12-ene-28-oic-acid] was tested. Which IC50 did it give?
A: Its IC50 is 120 µM.
